Measured values taken from patent US7485759B2, “Minimization of ligand degradation products, or reversion of same to useful phosphine ligands” (Dow Technology Investments LLC, priority 2003, dated 2009).
Read-outs that look alike come from different tables or passages of the source.

Columns and labels:
[1] = Hydrocarbonylation of 2-pentenal with different ligands; ligand converted to phosphonium ion ligand degradation product by 31P-NMR (Example 4); assay type: physicochemical; conditions: ligand converted to phosphonium ion degradation product as percentage of total ligand; 3 hours, 70° C., 300 psig CO, 600 psig H2, 1570 ppm Rh, 4.6 mol ligand/mol Rh, 2-pentenal in 1-butanol
Method: In a series of hydroformylation reactions (4A-D) 2-pentenal (50 mmols) was subjected to hydrocarbonylation conditions for 3 hours using a rhodium catalyst promoted with a variety of ligands having different cone angles and pKa's. Hydrocarbonylation conditions included: 70° C., 300 psig (2,068 kPa) carbon monoxide, 600 psig (4,136 kPa) hydrogen, 1570 ppm Rh, 4.6 mol ligand/mol Rh, and 40 wt % initial 2-pentenal in 1-butanol solvent. The source of Rh was Rh4(CO)12. During the course of the reaction 2-pentenal was hydrogenated to valeraldehyde and then to pentanol. After the reaction was completed, the reaction fluid was examined by P^31-NMR spectroscopy to determine the amount of ligand converted to phosphonium ion ligand degradation product, as a percentage of the total ligand in solution.

[2] = Ligand basicity measured by pKa; assay type: physicochemical; conditions: est = estimated value
Method: Basicity (electronic effect) measures the reactivity of a ligand towards a proton. Ligands with lower attraction to binding a proton are less basic, and therefore, generally of lower nucleophilicity. […] Generally, basicity is measured by pKa, known to those of skill in the art, as described in Organometallics, (1989) 8(1), 1, and by Wm. A. Henderson, Jr. and C. A. Streuli, Journal of the American Chemical Society, (1960), 82, 5791-5794, and by Tim Allman, et al., Canadian Journal of Chemistry (1982), 60(6), 716-722, all references incorporated herein by reference. Ligands having a pKa typically of less than about 8.3 provide for reduced formation of phosphonium ion ligand degradation products.

[3] = cited from earlier work
[4] = Batch hydrocarbonylation of 1,3-butadiene; phosphonium salts followed by 31P-NMR and ligand usage (Examples 1-3); assay type: physicochemical
Method: A batch hydrocarbonylation of 1,3-butadiene (BD) to pentenols was conducted at the following conditions: 70° C., 300 psig (2,068 kPa) carbon monoxide, 600 psig (4,136 kPa) hydrogen, 1570 ppm Rh, 4.6 mol ligand/mol Rh, and 40 wt % initial BD in 1-butanol solvent. Trioctylphosphine was used as ligand, and the Rh source was Rh4(CO)12. Multiple samples were taken from the reactor and analyzed by phosphorus-31 nuclear magnetic resonance spectroscopy (^31P-NMR) to follow the concentration of phosphonium ion ligand degradation products (phosphonium salts) with time. The concentration of phosphonium salts increased between t=0 and t=60 min, and their concentration reached a maximum of 0.008 mol/L at t=60 min. […] The concentration of 2-pentenal (α,β-unsaturated aldehyde) also reached a maximum at 60 min.
The BD conversion at the time when the concentrations of phosphonium salts and α,β-unsaturated aldehyde were at their maximum was 39%. Had the reaction been stopped at 39% conversion of BD, the ligand usage (lost) to phosphonium salts would have been 65 g/L/day. However, the reaction was continued until 480 minutes to allow for the 2-pentenal to react away under normal reaction conditions. […] The BD conversion at t=480 min was 98%. When the reaction was stopped at 98% BD conversion, the ligand usage (lost) to phosphonium salts was less than 1 g/L/day.
A batch hydrocarbonylation of 1,3-butadiene (BD) was conducted to partial conversion followed by stripping of the reaction product solution with hydrogen to hydrogenate residual α,β-unsaturated aldehyde (2-pentenal). The batch hydrocarbonylation was conducted at the following conditions: 70° C., 300 psig (2,068 kPa) carbon monoxide, 600 psig (4,136 kPa) hydrogen, 1590 ppm Rh, 4.5 mol ligand/mol Rh, and 40 wt % initial BD in 1-butanol solvent. The ligand used was trioctylphosphine, and the Rh source was Rh4(CO)12. The reaction was conducted for 130 minutes and reached 67% conversion BD. At that time, the concentration of phosphonium salts and α,β-unsaturated aldehyde (2-pentenal) were both about 0.006 mol/L. If no attempt had been made to revert the phosphonium salts at this point, the ligand usage (lost) to phosphonium salts would have been 25 g/L/day. The reactor was vented down to atmospheric pressure to remove most of the syn-gas (CO+H2). The reactor was then re-pressurized back to 900 psig (6,205 kPa) with pure hydrogen. […] Hydrogen was continuously sparged through the reactor at a rate of 0.5 standard cubic feet per hour (SCFH) during the time when the reactor was at 120° C. and 900 psig (6,205 kPa). After 10 minutes of stripping with hydrogen, all phosphonium salts were undetectable by ^31P-NMR, and the α,β-unsaturated aldehyde was undetectable by gas chromatography. The concentration of both of these species remained at essentially “0” for the remainder of the experiment. The ligand usage (loss to phosphonium salts) was reduced from 25 g/L/day to less than 1 g/L/day by reverting the phosphonium salts by hydrogenating the residual α,β-unsaturated aldehyde with hydrogen.
A batch hydrocarbonylation of 1,3-butadiene (BD) was conducted to partial conversion followed by stripping of the reaction product solution with nitrogen to remove residual α,β-unsaturated aldehyde (2-pentenal) by volatilization at […]. The batch hydrocarbonylation was conducted at the following conditions: 70° C., 300 psig (2,068 kPa) carbon monoxide, 600 psig (4,136 kPa) hydrogen, 1590 ppm Rh, 4.6 mol ligand/mol Rh, and 40 wt % initial BD in 1-butanol solvent. The ligand used was trioctylphosphine, and the Rh source was Rh4(CO)12. The reaction was conducted for 120 minutes and reached 72% conversion of BD. At that time, the concentration of phosphonium salts and α,β-unsaturated aldehyde were about 0.005 and 0.016 mol/L, respectively. If no attempt had been made to revert the phosphonium salts at this point, the ligand usage (lost) to phosphonium salts would have been about 20 g/L/day. […]

Row | Structure (SMILES) | % Phosphonium Salt (by wt.) [1] [%] | pKa [2] | PKa [3] | PKa ([3]; listed as tri-isobutylphosphine) | ligand usage (lost) to phosphonium salts ([4]; Example 1, had the reaction been stopped at 39% conversion of BD) [g/L/day] | concentration of phosphonium salts ([4]; Example 1, maximum at t=60 min, 39% BD conversion, 70° C.) [mol/L] | ligand usage (lost) to phosphonium salts ([4]; Example 1, reaction stopped at 98% BD conversion) | concentration of phosphonium salts ([4]; Example 1, t=480 min, 98% BD conversion) [mol/L] | ligand usage (lost) to phosphonium salts ([4]; Example 2, 67% conversion BD, if no attempt made to revert) [g/L/day] | concentration of phosphonium salts ([4]; Example 2, 130 minutes, 67% conversion BD, before reversion) | phosphonium salts by 31P-NMR ([4]; Example 2, after 10 minutes of stripping with hydrogen, 120° C., 900 psig) | ligand usage (loss to phosphonium salts) ([4]; Example 2, after reversion with hydrogen) | ligand usage (lost) to phosphonium salts ([4]; Example 3, 72% conversion of BD, if no attempt made to revert) | concentration of phosphonium salts ([4]; Example 3, 120 minutes, 72% conversion of BD, before reversion) | concentration of phosphonium salts ([4]; Example 3, after 20 minutes of stripping with nitrogen, 120° C., 900 psig) [mol/L] | ligand usage (loss to phosphonium salts) ([4]; Example 3, after stripping with nitrogen) [g/L/day]
1 | CCCCP(CCCC)C1CCCCC1 [Cyclohexyldi-n-butylphosphine] | 9.8 | ~8.9 | – | – | – | – | – | – | – | – | – | – | – | – | – | –
2 | CC(C)CP(CC(C)C)CC(C)C [Tri-isobutylphosphine] | 0.3 | – | 7.97 | less than 8.3 | – | – | – | – | – | – | – | – | – | – | – | –
3 | CCCCCCCCP(CCCCCCCC)CCCCCCCC [tri-n-octylphosphine] | – | ≥ 8.3 | – | – | 65 | 0.008 | less than 1 g/L/day | 0.0005 | 25 | about 0.006 mol/L | undetectable | less than 1 g/L/day | about 20 g/L/day | about 0.005 mol/L | 0.0005 | 2
